# Experimental data from patent publication US11369565B2, “Amino-pyrimidine skeletal muscle modulators” (Cytokinetics, Inc., priority 2010, dated 2022).
# System: rabbit skeletal myofibrils (approximately 90% fast fibers)
# Experiment: Activation of fast skeletal myofibrils (PUMA coupled-enzyme ATPase assay at pCa25)
# Type: biochemical
# Conditions: concentration at which the compound increased the enzymatic activity by 40%; calcium at pCa25; PM12 buffer pH 6.8
# Method in brief: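 In pH 6.8 PM12 buffer (12 mM Pipes, 2 mM MgCl2, 1 mM DTT), ADP from myosin regenerated via pyruvate kinase/lactate dehydrogenase, with absorbance change at 340 nm from NADH oxidation as read-out. Calcium set at pCa25; Triton-washed rabbit skeletal myofibrils (about 90% fast fibres) used.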
row,SMILES,Mean AC1.4
1,CC(C)(Nc1ncc(-c2cccc(C(N)=O)c2)cn1)c1ncccc1S(C)(=O)=O [3-[2-({1-methyl-1-[3-(methylsulfonyl)(2-pyridyl)]ethyl}amino)pyrimidin-5-yl]benzamide],D (D=>20 uM)
2,CC(C)(Nc1ncc(-c2cccc(C(N)=O)c2)cn1)c1ccc(S(C)(=O)=O)cc1 [3-[2-({1-methyl-1-[4-(methylsulfonyl)phenyl]ethyl}amino)pyrimidin-5-yl)benzamide],D (D=>20 uM)
3,CC(C)(Nc1ncc(-c2cc(C#N)ccc2F)cn1)c1ncccc1C(F)F [3-[2-({1[3-(difluoromethyl)(2-pyridyl)]-isopropyl}amino)pyrimidin-5-yl]-4-fluorobenzenecarbonitrile],B (B=1-10 uM)
4,"NC(=O)c1ccc(F)c(-c2cnc(NCC3(c4ncccc4Cl)CC(F)(F)C3)nc2)c1 [3-[2-({[1-(3-chloro(2-pyridyl))-3,3-difluorocyclobutyl]methyl}amino)pyrimidin-5-yl]-4-fluorobenzamide]",A (A=<1 uM)
5,NC(=O)c1cccc(-c2cnc(NC[C@]3(c4ncccc4F)C[C@H](F)C3)nc2)c1O [3-[2-({[3-fluoro-1-(3-fluoro(2-pyridyl))cyclobutyl]methyl)amino)pyrimidin-5-yl]-2-hydroxybenzamide],A (A=<1 uM)
6,O=C(O)c1cccc(-c2cnc(NC[C@]3(c4ncccc4F)C[C@H](F)C3)nc2O)c1 [3-[2-({[3-fluoro-1-(3-fluoro(2-pyridyl))cyclobutyl]methyl}amino)-4-hydroxypyrimidin-5-yl] benzoic acid],D (D=>20 uM)
7,NC(=O)c1cccc(-c2cnc(NC[C@]3(c4ncccc4F)C[C@H](F)C3)nc2O)c1 [3-[2-({[3-fluoro-1-(3-fluoro(2-pyridyl))cyclobutyl]methyl}amino)-4-hydroxypyrimidin-5-yl]benzamide],B (B=1-10 uM)
8,COc1nc(NC[C@]2(c3ncccc3F)C[C@H](F)C2)ncc1-c1cccc(C(N)=O)c1 [3-[2-({[3-fluoro-1-(3-fluoro(2-pyridyl))cyclobutyl]methyl}amino)-4-methoxypyrimidin-5-yl]benzamide],A (A=<1 uM)
9,Cc1nc(NC[C@]2(c3ncccc3F)C[C@H](F)C2)ncc1-c1cccc(C(N)=O)c1 [3-[2-({[3-fluoro-1-(3-fluoro(2-pyridyl))cyclobutyl]methyl}amino)-4-methylpyrimidin-5-yl]benzamide],B (B=1-10 uM)
10,NC(=O)c1ccc(O)c(-c2cnc(NC[C@]3(c4ncccc4F)C[C@H](F)C3)nc2)c1 [3-[2-({[3-fluoro-1-(3-fluoro(2-pyridyl))cyclobutyl]methyl}amino)pyrimidin-5-yl]-4-hydroxybenzamide],A (A=<1 uM)
11,O=C(O)c1ccc(O)c(-c2cnc(NC[C@]3(c4ncccc4F)C[C@H](F)C3)nc2)c1 [3-[2-({[3-fluoro-1-(3-fluoro(2-pyridyl))cyclobutyl]methyl}amino)pyrimidin-5-yl]-4-hydroxybenzoic acid],A (A=<1 uM)
12,NC(=O)c1cccc(-c2cnc(NCC3(c4ncccc4F)CC(F)C3)nc2)c1 (stereo not drawn) [3-[2-({[3-fluoro-1-(3-fluoro(2-pyridyl))cyclobutyl]methyl}amino)pyrimidin-5-yl]benzamide],A (A=<1 uM)
13,Oc1ncccc1-c1cnc(NC[C@]2(c3ncccc3F)C[C@H](F)C2)nc1 [3-[2-({[3-fluoro-1-(3-fluoro(2-pyridyl))cyclobutyl]methyl}amino)pyrimidin-5-yl]pyridin-2-ol],C (C=10-20 uM)
14,Cc1ccc(F)c([C@]2(CNc3ncc(-c4cccc(C(N)=O)c4)cn3)C[C@@H](F)C2)n1 [3-[2-({[3-fluoro-1-(3-fluoro-6-methyl(2-pyridyl))cyclobutyl]methyl}amino)pyrimidin-5-yl]benzamide],A (A=<1 uM)
15,NC(=O)c1ccc(F)c(-c2cnc(NCC3(c4ncccc4Cl)CCC3)nc2)c1 [3-[2-({[(3-chloro(2-pyridyl))cyclobutyl]methyl}amino)pyrimidin-5-yl]-4-fluorobenzamide],A (A=<1 uM)
16,N#Cc1ccc(F)c(-c2cnc(NCC3(c4ncccc4Cl)CCC3)nc2)c1 [3-[2-({[(3-chloro(2-pyridyl))cyclobutyl]methyl}amino)pyrimidin-5-yl]-4-fluorobenzenecarbonitrile],A (A=<1 uM)
17,NC(=O)c1cccc(-c2cnc(NCC3(c4ncccc4Cl)CCC3)nc2)c1 [3-[2-({[(3-chloro-2-pyridyl)cyclobutyl]methyl}amino)pyrimidin-5-yl]benzamide],A (A=<1 uM)
18,N#Cc1cccc(-c2cnc(NCC3(c4ncccc4Cl)CCC3)nc2)c1 [3-[2-({[(3-chloro-2-pyridyl)cyclobutyl]methyl}amino)pyrimidin-5-yl]benzenecarbonitrile],A (A=<1 uM)
19,NC(=O)c1ccc(O)c(-c2cnc(NCC3(c4ncccc4F)CCC3)nc2)c1 [3-[2-({[(3-fluoro(2-pyridyl))cyclobutyl]methyl}amino)pyrimidin-5-yl]-4-hydroxybenzamide],A (A=<1 uM)
20,NC(=O)c1cccc(-c2cnc(NCC3(c4ncccc4F)CCC3)nc2)c1 [3-[2-({[(3-fluoro-2-pyridyl)cyclobutyl]methyl}amino)pyrimidin-5-yl]benzamide],A (A=<1 uM)

row,SMILES,Mean AC1.4
1,CC(C)(C)OC(=O)NCCC(=O)NCc1cnn(-c2cnc(NC(C)(C)c3ncccc3Cl)nc2)c1 [3-[(tert-butoxy)carbonylamino]-N-{[1-(2-{[1-(3-chloro(2-pyridyl))-isopropyl]amino}pyrimidin-5-yl)pyrazol-4-yl)]methyl}propanamide],D (D=>20 uM)
2,Nc1ncc(-c2cnc(NC[C@]3(c4ncccc4F)C[C@H](F)C3)nc2)[nH]c1=O [3-amino-6-[2-({[3-fluoro-1-(3-fluoro(2-pyridyl))cyclobutyl]methyl}amino)pyrimidin-5-yl] hydropyrazin-2-one],B (B=1-10 uM)
3,CC(C)(Nc1ncc(-n2cc(CNC(=O)CCN)cn2)cn1)c1ncccc1Cl [3-amino-N-{[1-(2-{[1-(3-chloro(2-pyridyl))-isopropyl]amino}pyrimidin-5-yl)pyrazol-4-yl]methyl}propanamide],B (B=1-10 uM)
4,CC(C)(C)Nc1ncc(-c2cccc(C(N)=O)c2)cn1 [3-{2-[(tert-butyl)amino]pyrimidin-5-yl} benzamide],D (D=>20 uM)
5,"CC(C)(Nc1ncc(-c2csc(C(N)=O)n2)cn1)c1ncccc1Cl [4-(2-{[1-(3-chloro(2-pyridyl))-isopropyl]amino}pyrimidin-5-yl)-1,3-thiazole-2-carboxamide]",C (C=10-20 uM)
6,CC(C)(Nc1ncc(-c2ccnc(C(N)=O)c2)cn1)c1ncccc1Cl [4-(2-{[1-(3-chloro(2-pyridyl))-isopropyl]amino}pyrimidin-5-yl)pyridine-2-carboxamide],B (B=1-10 uM)
7,CC(C)(Nc1ncc(-c2csc(C(N)=O)c2)cn1)c1ncccc1Cl [4-(2-{[1-(3-chloro(2-pyridyl))-isopropyl]amino}pyrimidin-5-yl)thiophene-2-carboxamide],B (B=1-10 uM)
8,CC(C)(CNc1ncc(-c2ccc(C(N)=O)cc2)cn1)c1ccc(F)cc1 [4-(2-{[2-(4-fluorophenyl)-2-methylpropyl]amino}pyrimidin-5-yl)benzamide],B (B=1-10 uM)
9,N#Cc1cc(-c2cnc(NC3(c4ncccc4F)CCC3)nc2)ccn1 [4-(2-{[(3-fluoro-2-pyridyl)cyclobutyl]amino}pyrimidin-5-yl)pyridine-2-carbonitrile],D (D=>20 uM)
10,NC(=O)c1cc(-c2cnc(NC3(c4ncccc4F)CCC3)nc2)ccn1 [4-(2-{[(3-fluoro-2-pyridyl)cyclobutyl]amino}pyrimidin-5-yl)pyridine-2-carboxamide],B (B=1-10 uM)
11,N#Cc1cc(-c2cnc(NC3(c4ccc(F)cc4)CCC3)nc2)ccn1 [4-(2-{[(4-fluorophenyl)cyclobutyl]amino}pyrimidin-5-yl)pyridine-2-carbonitrile],C (C=10-20 uM)
12,NC(=O)c1cc(-c2cnc(NC3(c4ccc(F)cc4)CCC3)nc2)ccn1 [4-(2-{[(4-fluorophenyl)cyclobutyl]amino}pyrimidin-5-yl)pyridine-2-carboxamide],B (B=1-10 uM)
13,Cc1nc(NC[C@]2(c3ncccc3F)C[C@H](F)C2)ncc1-c1ccc(C(N)=O)cc1 [4-[2-({[3-fluoro-1-(3-fluoro(2-pyridyl))cyclobutyl]methyl}amino)-4-methylpyrimidin-5-yl]benzamide],D (D=>20 uM)
14,Cc1nc(NC[C@]2(c3ncccc3F)C[C@H](F)C2)ncc1-c1ccc(C#N)cc1 [4-[2-({[3-fluoro-1-(3-fluoro(2-pyridyl))cyclobutyl]methyl}amino)-4-methylpyrimidin-5-yl]benzenecarbonitrile],D (D=>20 uM)
15,NC(=O)c1cc(-c2cnc(NCC3(c4ncccc4F)CCC3)nc2)ccn1 [4-[2-({[(3-fluoro-2-pyridyl)cyclobutyl]methyl}amino)pyrimidin-5-yl]pyridine-2-carboxamide],B (B=1-10 uM)
16,NC(=O)c1ccc(F)cc1-c1cnc(NC[C@]2(c3ncccc3F)C[C@H](F)C2)nc1 [4-fluoro-2-[2-({[3-fluoro-1-(3-fluoro(2-pyridyl))cyclobutyl]methyl}amino)pyrimidin-5-yl]benzamide],B (B=1-10 uM)
17,CC(C)(Nc1ncc(-c2cc(C(N)=O)ccc2F)cn1)c1ncccc1F [4-fluoro-3-(2-{[1-(3-fluoro(2-pyridyl))-isopropyl]amino}pyrimidin-5-yl)benzamide],B (B=1-10 uM)
18,COc1cccnc1C(C)(C)Nc1ncc(-c2cc(C(N)=O)ccc2F)cn1 [4-fluoro-3-(2-{[1-(3-methoxy(2-pyridyl))-isopropyl]amino}pyrimidin-5-yl)benzamide],C (C=10-20 uM)
19,COc1cccnc1C(C)(C)Nc1ncc(-c2cc(C#N)ccc2F)cn1 [4-fluoro-3-(2-{[1-(3-methoxy(2-pyridyl))-isopropyl]amino}pyrimidin-5-yl)benzenecarbonitrile],D (D=>20 uM)
